Patent US20040127468A1, “Methods and compositions for treating apoptosis associated disorders” (priority 2001, published 2004)

Legend:
[1] = test system: NGF differentiated PC12 cells; assay: Survival of NGF differentiated PC12 cells after apoptosis initiating insult (counting intact nuclei); assay type: cell-based
Protocol: PC12 cells (ATCC, Manassas, Md.) were propagated in minimum essential medium (MEM) containing 10% horse serum, 5% fetal bovine serum, 2 mM L-glutamine, 50 units/ml penicillin, and 50 μg/ml streptomycin (MEM with serum, MIS), all purchased from Life Technologies (Rockville, Md.). The cells were grown on 24 well plates (8×10^4 cells/well) for counting of intact nuclei as an estimate of survival, poly-L-lysine treated coverslips (1×10^4 cells/coverslip) for imaging with epiflorescence microscopy or laser confocal scanning microscopy (LCSM) or 100 mm dishes (1×10^6 cells/plate) for protein chemistry. The cells were differentiated for 6 days in M/S supplemented with 100 ng/ml 7S NGF (Upstate Biotech., Lake Placid, N.Y.). MEM with serum and NGF is abbreviated as M/S+N (see (Tatton et al., 1994, J. Neurochemistry, 63:1572-1575; Wadia et al., J. Neuroscience, 1998, 18: 932-947; Carlile et al., 2000, Molecular Pharmacology, 57:2-12) for further details of culture and treatment). Serum and NGF Withdrawal: Following incubation for 6 days in MEM with serum and NGF, cells underwent three successive washes in Hanks' Balanced Salt Solution (HBSS; Life Technologies, Rockville, Md.) to remove NGF and serum-borne trophic agents and then were replaced into MEM with serum and NGF for controls or into MEM without serum and NGF to induce apoptosis by serum and NGF withdrawal. C2-Ceramide, Rotenone, Peroxide, and Atractyloside Exposure: After 6 days of exposure to serum and NGF, cultures maintained in MEM with serum and NGF were treated for 24 hours with either vehicle (HBSS) as a control, or concentrations of C2-ceramide in HBSS varying from 2 to 50 μM, concentrations of rotenone in BSS varying from 2 to 50 nM, concentrations of H2O2 in HBSS varying from 0.01 to 0.25 mM H2O2 or concentrations of atractyloside in HBSS varying from 2 to 20 mM. Both cell survival and the percentages of cells with evidence of apoptotic nuclear degradation were assessed for all treatments. To estimate survival, the cells were seeded at a density of 8×10^4 cells/well in 24 well plates. Cells were harvested 24 hours after treatment and lysed. Intact nuclei were counted using a hemocytometer (see see (Tatton et al., 1994, J. Neurochemistry, 63:1572-1575; Wadia et al., J. Neuroscience, 1998, 18: 932-947; Carlile et al., 2000, Molecular Pharmacology, 57:2-12) for details of treatment and counting methods). The capacity of phosphatidic acid to increase survival, decrease apoptosis and maintain mitochondrial membrane potential was determined by counting intact nuclei as an indicator of cell survival, determining the percentages of cells with nuclear chromatin (DNA) condensation by staining cells with YOYO-1, a nucleic acid binding dye, and measuring mitochondrial potentiometric dye fluorescence by imaging them with florescence microscopy.

[2] = test system: cerebellar granule neurons; assay: Survival of cerebellar granule neurons after glutamate (counting intact nuclei); assay type: cell-based, rat; conditions: apoptosis initiating insult: Glutamate
Protocol: (§1) Cerebellar granule neurons were obtained from postnatal day 7 rat pups by enzymatic digestion and maintained in serum supplemented Eagle's Basal medium. Viable cells were plated at a density of 500,000 cells/ml onto poly-L-lysine coated tissue culture plastic or glass coverslips. Cytosine arabinoside (Ara-C) (10 μM) was added at 24 hours to halt glial proliferation. To induce apoptosis in the cerebellar granule neurons, 10^−4 to 10^−6 M glutamate was added on day 7 to the culture.
Both cell survival and the percentages of cells with evidence of apoptotic nuclear degradation were assessed for all treatments. […] Intact nuclei were counted using a hemocytometer (see see (Tatton et al., 1994, J. Neurochemistry, 63:1572-1575; Wadia et al., J. Neuroscience, 1998, 18: 932-947; Carlile et al., 2000, Molecular Pharmacology, 57:2-12) for details of treatment and counting methods).
(§2) The capacity of phosphatidic acid to increase survival, decrease apoptosis and maintain mitochondrial membrane potential was determined by counting intact nuclei as an indicator of cell survival, determining the percentages of cells with nuclear chromatin (DNA) condensation by staining cells with YOYO-1, a nucleic acid binding dye, and measuring mitochondrial potentiometric dye fluorescence by imaging them with florescence microscopy.

[3] = test system: NGF differentiated PC12 cells; assay: Mitochondrial membrane potential by potentiometric dye fluorescence (TMRM, CMTMR) in NGF differentiated PC12 cells; assay type: cell-based
Protocol: Live cell ΔψM measurement: Cells on polylysine coated coverglass were incubated with 100 nM tetramethylrodaminemethylester (TMRM, Molecular probes, Eugene, Oreg.) or 10 μg/ml JC-1 (Molecular Probes, Eugene, Oreg.) to provide an estimate of ΔψM. The coverslips were transferred to a gas and temperature controlled circulating live cell chamber (Medical Systems Corp., Greenvale, N.Y.). A thermocoupler immersed in the medium maintained the media temperature at 37±0.1° C. TMRM, JC-1 and chloromethyltetramethylrosamine (CMTMR, Molecular probes, Eugene, Oreg.) and JC-1 stained cells were imaged 10 minutes following dye addition and images were collected every 3 minutes for approximately 20 minutes.
Fixed cell ΔψM Measurement. After treatment of NGF differentiated PC12 cells on poly-L-lysine coated 12 mm coverslips, the fixable potentiometric dye, CMTMR, was added at 137 nM for 15 minutes at 37° C. and simultaneous immunocytochemistry was performed. The cells were then rinsed once with warm Dulbecco's PBS prior to overnight fixation with ice cold 4% paraformaldehyde in PB and mounted onto slides with the aqueous mounting medium, Aquamount (Gallard-Schlesinger Ind., Garden City, N.Y.).
Florescence Microscopy. Images were obtained using a Leica TCS4D confocal microscope coupled to an argon-krypton laser or a standard epi-floresence microscope. The images were scanned or imaged using an oil immersion 100×1.4 N.A. objective to minimize focal depth. CMTMR and TMRM treated cells were imaged using 568 nm excitation and detected with 600/30 nm band pass filter. The JC-1 incubated cells were imaged using 488 nm excitation and detected using 530/30 nm band pass and 590 nm long pass filters observed by separate detectors. Image resolution was 512×512×8 bits per pixel. […] To measure the intensity of mitochondrial potentiometric dye fluorescence, pixel intensity measurements from 20-40 mitochondria from each of 50-70 cells per treatment, per experiment were obtained by placing a 3×3 pixel box at 2 points in each mitochondrion. The fluorescence intensity values were automatically exported to an Excel spreadsheet for subsequent analysis in MicroCal Origin (Northampton, Mass.). […]
as §2

[4] = test system: NGF differentiated PC12 cells; assay: Nuclei with chromatin condensation (YOYO-1 staining) in NGF differentiated PC12 cells; assay type: cell-based
Protocol: PC12 cells (ATCC, Manassas, Md.) were propagated in minimum essential medium (MEM) containing 10% horse serum, 5% fetal bovine serum, 2 mM L-glutamine, 50 units/ml penicillin, and 50 μg/ml streptomycin (MEM with serum, MIS), all purchased from Life Technologies (Rockville, Md.). The cells were grown on 24 well plates (8×10^4 cells/well) for counting of intact nuclei as an estimate of survival, poly-L-lysine treated coverslips (1×10^4 cells/coverslip) for imaging with epiflorescence microscopy or laser confocal scanning microscopy (LCSM) or 100 mm dishes (1×10^6 cells/plate) for protein chemistry. The cells were differentiated for 6 days in M/S supplemented with 100 ng/ml 7S NGF (Upstate Biotech., Lake Placid, N.Y.). MEM with serum and NGF is abbreviated as M/S+N (see (Tatton et al., 1994, J. Neurochemistry, 63:1572-1575; Wadia et al., J. Neuroscience, 1998, 18: 932-947; Carlile et al., 2000, Molecular Pharmacology, 57:2-12) for further details of culture and treatment). […]
(§3) Percentages of cells with apoptotic nuclei were determined for cells grown on poly-L-lysine treated coverslips (density 1×10^4/coverslip). […] The total number of YOYO-1 stained nuclei with chromatin condensation were counted on twenty-five 40× fields for each coverslip, each field chosen by pairs of randomly-generated x-y coordinates. The proportion of nuclei with chromatin condensation were expressed as a percentage of the total number of cells in each field. […]
as §2

[5] = test system: cerebellar granule neurons; assay: Nuclei with chromatin condensation (YOYO-1 staining) in cerebellar granule neurons after glutamate; assay type: cell-based, rat; conditions: apoptosis initiating insult: Glutamate
Protocol: as §1, §3, §2

[6] = apoptosis initiating insult: Serum and NGF Withdrawal

phosphatidic acid [PA]
increase of cell survival by varying concentrations of phosphatidic acid ([1]; after exposure to 0.1 mM H2O2 which kills about 60% of the cells (FIG. 3C)): does not substantially increase | PA reduced apoptosis ([1]; apoptosis initiated by peroxide or atractyloside, 2 to 30 μM PA): not | PA Increases Survival ([1]; apoptosis initiating insult: Atractyloside, 24 hours): No | PA Increases Survival ([1]; apoptosis initiating insult: Ceramide (C2-ceramide), 24 hours): Yes - FIG. 2A | PA Increases Survival ([1]; apoptosis initiating insult: Ceramide (C2-ceramide), 24 hours, listed as Phosphatidic acid): increase cell survival | PA Increases Survival ([1]; apoptosis initiating insult: Peroxide (H2O2), 24 hours, listed as phosphatidic acid): does not alter survival | PA Increases Survival ([1]; apoptosis initiating insult: Rotenone, 24 hours, listed as Phosphatidic acid): increase cell survival | PA Increases Survival [1, 6]: Yes - FIG. 3B | PA Increases Survival ([1]; apoptosis initiating insult: Serum and NGF Withdrawal, listed as Phosphatidic acid): increase cell survival | PA Increases Survival [2]: Yes | PA Increases Survival ([2]; listed as Phosphatidic acid): increase cell survival | PA Reduces Decreases In Mitochondrial Membrane Potential ([3]; apoptosis initiating insult: Ceramide, dyes TMRM and CMTMR, listed as phosphatidic acid): reduces | PA Reduces Decreases In Mitochondrial Membrane Potential ([3]; apoptosis initiating insult: Rotenone, dyes TMRM and CMTMR): Yes - FIG. 4C | PA Reduces Decreases In Mitochondrial Membrane Potential ([3]; apoptosis initiating insult: Rotenone, dyes TMRM and CMTMR, listed as phosphatidic acid): reduces | PA Reduces Decreases In Mitochondrial Membrane Potential [3, 6]: Yes | PA Decreases Nuclei With Chromatin Condensation ([4]; apoptosis initiating insult: Ceramide): Yes | PA Decreases Nuclei With Chromatin Condensation ([4]; apoptosis initiating insult: Rotenone): Yes | PA Decreases Nuclei With Chromatin Condensation [4, 6]: Yes | PA Decreases Nuclei With Chromatin Condensation [5]: Yes
